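Results reflect a 48-hour exposure of cells in 96-well plates to compound at five concentrations. At the TGI there is no net growth.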

Common to all, as to assay: NCI-60 cell line screen, 48 h
Experiment [1] relates to 786-0 renal.
Experiment [2] deals with A549 NSCLC.
The test system of experiment [3] is ACHN renal.
Experiment [4] deals with HCT-116 colon.
Experiment [5] has as its system HL-60(TB) leukemia.
In experiment [6] the test system is K-562 leukemia.
Experiment [7] relates to LOX IMVI melanoma.
For experiment [8], the system named is MDA-MB-231 breast.
Experiment [9] has as its system NCI-H226 lung.
Experiment [10] concerns NCI/ADR-RES ovarian.
Experiment [11] deals with OVCAR-8 ovarian.
The test system of experiment [12] is SF-295 CNS.
For experiment [13], the system named is SK-MEL-2 melanoma.
Experiment [14] relates to SK-MEL-28 melanoma.
The test system of experiment [15] is SK-MEL-5 melanoma.
Experiment [16] concerns SK-OV-3 ovarian.
Experiment [17] deals with SN12C renal.
The subject of experiment [18] is SNB-19 CNS.
Experiment [19] deals with UACC-62 melanoma.

`COc1ccccc1C(=O)NO`: the TGI in experiment [1], in [2], in [3], in experiment [4], in experiment [5] and in experiment [6] was greater than 100 µM throughout. Also, the TGI in experiment [7], in experiment [8], in [9], in experiment [10], in experiment [11] and in [12] was greater than 100 µM each time. The TGI in experiment [13], in [14], in experiment [15], in experiment [16], in experiment [17] and in experiment [18] was greater than 100 µM each time. For the same compound, the TGI in [19] was greater than 100 µM.
`CC(NCc1c(O)ccc2ccc(=O)oc12)C(=O)O` (centres undefined): the TGI in experiment [1], in experiment [2], in experiment [3], in [4], in [5] and in [6] was greater than 100 µM in each case. In addition, the TGI in experiment [7], in experiment [8], in experiment [9], in experiment [10], in experiment [11] and in experiment [12] was greater than 100 µM throughout. Also, the TGI in [13], in experiment [14], in [15], in experiment [16], in [17] and in experiment [18] was greater than 100 µM each time. Besides, the TGI in experiment [19] is greater than 100 µM.
As for `CCC1(CC)C(=O)N(C(=O)c2ccccc2)N(C(=O)c2ccc(Cl)cc2)C1=O`, the TGI in experiment [1], in experiment [2], in experiment [3], in [4], in experiment [5] and in [6] was greater than 75 µM throughout. Moreover, the TGI in experiment [7], in experiment [8], in experiment [9], in experiment [10], in [11] and in experiment [12] was greater than 75 µM throughout. Moreover, the TGI in experiment [13], in [14], in [15], in experiment [16], in experiment [17] and in experiment [18] was greater than 75 µM each time. Also, in [19], the TGI is greater than 75 µM.
On to `COc1ccc2c(=O)cc(-c3ccc(OC)c(OC)c3OC)oc2c1`, for which the TGI in [1] is greater than 100 µM; in experiment [2], greater than 31.6 µM; in experiment [3] it was greater than 100 µM; in experiment [4] it was greater than 100 µM; in [5], greater than 62.4 µM; in experiment [6] it was greater than 100 µM. Moreover, the TGI in [7], in experiment [8], in experiment [9], in experiment [10], in [11] and in experiment [12] was greater than 100 µM in each case. Also, the TGI in experiment [14], in experiment [15], in [16], in experiment [17], in experiment [18] and in experiment [19] was greater than 100 µM in each case.
For `CCc1n[nH]c(=O)n1/N=C(\C)c1ccc([N+](=O)[O-])cc1`, the TGI in [1], in experiment [2], in experiment [4], in experiment [5], in [6] and in experiment [7] was greater than 100 µM throughout. For the same compound, the TGI in [8], in experiment [9], in experiment [10], in experiment [11], in experiment [12] and in experiment [13] was greater than 100 µM in each case. The TGI in experiment [14], in experiment [15], in experiment [17], in experiment [18] and in experiment [19] was greater than 100 µM throughout.
On to `COc1cc(C2OC(N)=C(C#N)C3=C2C(C)CCC3)cc(OC)c1OC` (centres undefined), for which the TGI in experiment [1], in experiment [3], in experiment [4], in experiment [5], in experiment [6] and in experiment [7] was greater than 100 µM each time. Further, the TGI in experiment [8], in experiment [9], in experiment [10], in experiment [11], in experiment [12] and in experiment [13] was greater than 100 µM each time. Besides, the TGI in [14], in [15], in [16], in experiment [17], in experiment [18] and in [19] was greater than 100 µM in each case.
As to `O=C(O)C1(Cc2ccccc2)Cc2cc3c(cc2C1)CCC3`, the TGI in experiment [1], in experiment [2], in experiment [3], in experiment [4], in [5] and in experiment [6] was greater than 100 µM in each case. Moreover, the TGI in experiment [7], in [8], in experiment [9], in experiment [10], in [11] and in experiment [12] was greater than 100 µM throughout. Moreover, the TGI in [13], in experiment [14], in [15], in [16], in experiment [17] and in experiment [18] was greater than 100 µM in each case. In [19], this compound yielded a TGI greater than 100 µM.

These data come from PubChem BioAssay (NCI).
